Measurements: the NIST ThermoML archive (doi:10.1021/je800579j)

Test: refractive index (Na D-line) (dimensionless); xn = mol fraction of the nth substance listed
Details: Liquid, Standard Abbe refractometry

Cc1ccccc1C [1,2-dimethylbenzene] + C1COCCO1
refractive index
Details | 288.15 K | 293.15 K | 298.15 K | 303.15 K | 308.15 K | 313.15 K | 318.15 K
x2 = 0 | 1.5083 | 1.5055 | 1.5029 | 1.5002 | 1.4975 | 1.4948 | 1.4921
x2 = 0.0672 | 1.5029 | 1.5001 | 1.4974 | 1.4946 | 1.4918 | 1.489 | 1.4862
x2 = 0.1391 | 1.4972 | 1.4944 | 1.4917 | 1.4889 | 1.4861 | 1.4833 | 1.4804
x2 = 0.2103 | 1.4914 | 1.4886 | 1.4858 | 1.4831 | 1.4803 | 1.4775 | 1.4746
x2 = 0.2853 | 1.4853 | 1.4825 | 1.4798 | 1.4771 | 1.4743 | 1.4715 | 1.4687
x2 = 0.3543 | 1.4796 | 1.4769 | 1.4742 | 1.4714 | 1.4687 | 1.4659 | 1.4632
x2 = 0.4293 | 1.4734 | 1.4707 | 1.4681 | 1.4654 | 1.4627 | 1.46 | 1.4573
x2 = 0.5092 | 1.4667 | 1.4641 | 1.4615 | 1.4589 | 1.4562 | 1.4535 | 1.4509
x2 = 0.581 | 1.4606 | 1.458 | 1.4554 | 1.4528 | 1.4502 | 1.4476 | 1.445
x2 = 0.6518 | 1.4545 | 1.452 | 1.4495 | 1.4469 | 1.4444 | 1.4418 | 1.4392
x2 = 0.7248 | 1.4482 | 1.4457 | 1.4433 | 1.4408 | 1.4383 | 1.4357 | 1.4332
x2 = 0.7888 | 1.4427 | 1.4402 | 1.4378 | 1.4354 | 1.4329 | 1.4304 | 1.4279
x2 = 0.8595 | 1.4365 | 1.4342 | 1.4318 | 1.4295 | 1.4271 | 1.4246 | 1.4221
x2 = 0.9298 | 1.4305 | 1.4282 | 1.4259 | 1.4236 | 1.4213 | 1.419 | 1.4166

C1COCCO1 [1,4-dioxane] + Cc1ccccc1
refractive index
Details | 288.15 K | 293.15 K | 298.15 K | 303.15 K | 308.15 K | 313.15 K | 318.15 K
x1 = 0.0688 | 1.4955 | 1.4927 | 1.4899 | 1.487 | 1.4841 | 1.4812 | 1.4783
x1 = 0.1373 | 1.4914 | 1.4886 | 1.4858 | 1.4829 | 1.48 | 1.4771 | 1.4742
x1 = 0.2112 | 1.4869 | 1.4842 | 1.4814 | 1.4786 | 1.4757 | 1.4729 | 1.47
x1 = 0.2858 | 1.4822 | 1.4795 | 1.4768 | 1.474 | 1.4712 | 1.4684 | 1.4655
x1 = 0.3552 | 1.4775 | 1.4749 | 1.4722 | 1.4695 | 1.4668 | 1.464 | 1.4613
x1 = 0.4361 | 1.4719 | 1.4693 | 1.4667 | 1.464 | 1.4614 | 1.4587 | 1.456
x1 = 0.5064 | 1.4668 | 1.4643 | 1.4617 | 1.4591 | 1.4565 | 1.4539 | 1.4512
x1 = 0.5819 | 1.4611 | 1.4586 | 1.4561 | 1.4536 | 1.451 | 1.4484 | 1.4458
x1 = 0.6506 | 1.4557 | 1.4533 | 1.4508 | 1.4483 | 1.4458 | 1.4433 | 1.4408
x1 = 0.7212 | 1.4499 | 1.4475 | 1.4451 | 1.4427 | 1.4403 | 1.4378 | 1.4353
x1 = 0.7903 | 1.444 | 1.4417 | 1.4393 | 1.437 | 1.4346 | 1.4322 | 1.4298
x1 = 0.864 | 1.4374 | 1.4352 | 1.4329 | 1.4306 | 1.4283 | 1.426 | 1.4236
x1 = 0.9336 | 1.431 | 1.4288 | 1.4266 | 1.4244 | 1.4222 | 1.4199 | 1.4176
x1 = 1 | 1.4245 | 1.4224 | 1.4203 | 1.4182 | 1.4161 | 1.4139 | 1.4117
